ChEMBL document CHEMBL5257022, “An integrated overview on pyrrolizines as potential anti-inflammatory, analgesic and antipyretic agents” (Eur J Med Chem, 2016)

Tests used:
[1] = target: T1, Prostaglandin G/H synthase 1 (Ovis aries) (UniProt P05979); experiment: Inhibition of COX1 in ovine thrombocyte at 10 uM relative to control
T1 sequence (whole entry): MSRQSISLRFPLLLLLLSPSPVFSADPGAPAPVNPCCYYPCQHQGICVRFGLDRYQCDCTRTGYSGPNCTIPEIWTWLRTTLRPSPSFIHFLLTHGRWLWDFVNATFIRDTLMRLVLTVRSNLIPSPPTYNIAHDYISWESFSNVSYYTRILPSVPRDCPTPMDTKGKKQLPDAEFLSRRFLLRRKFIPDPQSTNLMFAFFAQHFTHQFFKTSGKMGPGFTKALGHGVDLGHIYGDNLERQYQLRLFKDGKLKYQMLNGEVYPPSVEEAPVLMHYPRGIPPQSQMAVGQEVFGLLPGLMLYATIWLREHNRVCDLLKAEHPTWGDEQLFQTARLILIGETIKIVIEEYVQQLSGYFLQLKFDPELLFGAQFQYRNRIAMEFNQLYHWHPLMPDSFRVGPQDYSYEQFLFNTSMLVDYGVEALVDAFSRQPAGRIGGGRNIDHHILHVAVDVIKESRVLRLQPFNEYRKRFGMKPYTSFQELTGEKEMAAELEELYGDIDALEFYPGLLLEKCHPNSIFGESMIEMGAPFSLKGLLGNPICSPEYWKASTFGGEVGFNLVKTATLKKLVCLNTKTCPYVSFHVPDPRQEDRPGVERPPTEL

[2] = tested on: Rattus norvegicus; experiment: Antiinflammatory activity in rat assessed as fold change in inhibition of paw edema relative to phenylbutazone; format: functional
[3] = organism: Mus musculus; experiment: Analgesic activity in mouse assessed as inhibition of acetic acid-induced writhing response relative to aspirin; format: functional
[4] = tested on: Rattus norvegicus; experiment: Antiinflammatory activity in rat assessed as inhibition of paw edema; format: functional
[5] = target: Prostaglandin G/H synthase 1 (Homo sapiens, UniProt P23219); experiment: Inhibition of COX1 (unknown origin)
[6] = target: T2, Polyunsaturated fatty acid 5-lipoxygenase (Homo sapiens) (UniProt P09917); experiment: Inhibition of 5-LOX in human PMNL at 10 uM relative to control; format: cell-based
T2 sequence (whole entry): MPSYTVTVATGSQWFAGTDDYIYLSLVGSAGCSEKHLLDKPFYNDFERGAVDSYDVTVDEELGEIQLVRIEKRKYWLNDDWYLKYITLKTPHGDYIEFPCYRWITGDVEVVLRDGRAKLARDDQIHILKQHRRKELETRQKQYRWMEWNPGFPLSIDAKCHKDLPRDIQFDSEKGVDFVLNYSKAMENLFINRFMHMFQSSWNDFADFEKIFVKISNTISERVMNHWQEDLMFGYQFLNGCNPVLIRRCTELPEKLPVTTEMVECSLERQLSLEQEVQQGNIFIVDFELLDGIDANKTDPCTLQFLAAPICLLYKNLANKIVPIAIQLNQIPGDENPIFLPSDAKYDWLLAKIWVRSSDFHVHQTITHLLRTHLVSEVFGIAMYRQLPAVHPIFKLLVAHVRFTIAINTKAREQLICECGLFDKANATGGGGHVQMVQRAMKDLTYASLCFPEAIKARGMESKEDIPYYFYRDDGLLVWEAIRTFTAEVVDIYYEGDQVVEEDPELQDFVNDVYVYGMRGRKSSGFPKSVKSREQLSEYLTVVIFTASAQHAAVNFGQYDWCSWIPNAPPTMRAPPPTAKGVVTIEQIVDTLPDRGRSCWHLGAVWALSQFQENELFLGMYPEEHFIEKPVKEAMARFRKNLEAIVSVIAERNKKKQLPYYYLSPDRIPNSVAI

[7] = target: T3, Prostaglandin G/H synthase 2 (Homo sapiens, UniProt P35354); experiment: Inhibition of COX2 (unknown origin)
T3 sequence (P35354 whole entry): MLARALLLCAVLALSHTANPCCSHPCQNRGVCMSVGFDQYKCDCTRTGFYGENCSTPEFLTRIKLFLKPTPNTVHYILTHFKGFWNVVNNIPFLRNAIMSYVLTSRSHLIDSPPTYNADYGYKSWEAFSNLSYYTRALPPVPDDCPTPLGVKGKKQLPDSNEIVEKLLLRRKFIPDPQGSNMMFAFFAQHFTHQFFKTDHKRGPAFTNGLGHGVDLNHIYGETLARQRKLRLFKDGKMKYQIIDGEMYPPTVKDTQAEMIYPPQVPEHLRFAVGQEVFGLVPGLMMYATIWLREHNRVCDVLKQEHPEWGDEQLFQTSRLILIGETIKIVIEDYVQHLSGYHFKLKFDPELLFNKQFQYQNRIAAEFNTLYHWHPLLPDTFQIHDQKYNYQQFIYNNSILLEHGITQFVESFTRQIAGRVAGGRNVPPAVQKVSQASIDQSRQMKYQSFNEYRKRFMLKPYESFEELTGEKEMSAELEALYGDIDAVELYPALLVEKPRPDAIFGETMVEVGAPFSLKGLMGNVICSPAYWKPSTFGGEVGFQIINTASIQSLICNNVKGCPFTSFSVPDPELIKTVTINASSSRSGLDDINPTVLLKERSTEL

Prostaglandin G/H synthase 1, sequence (P23219 whole entry): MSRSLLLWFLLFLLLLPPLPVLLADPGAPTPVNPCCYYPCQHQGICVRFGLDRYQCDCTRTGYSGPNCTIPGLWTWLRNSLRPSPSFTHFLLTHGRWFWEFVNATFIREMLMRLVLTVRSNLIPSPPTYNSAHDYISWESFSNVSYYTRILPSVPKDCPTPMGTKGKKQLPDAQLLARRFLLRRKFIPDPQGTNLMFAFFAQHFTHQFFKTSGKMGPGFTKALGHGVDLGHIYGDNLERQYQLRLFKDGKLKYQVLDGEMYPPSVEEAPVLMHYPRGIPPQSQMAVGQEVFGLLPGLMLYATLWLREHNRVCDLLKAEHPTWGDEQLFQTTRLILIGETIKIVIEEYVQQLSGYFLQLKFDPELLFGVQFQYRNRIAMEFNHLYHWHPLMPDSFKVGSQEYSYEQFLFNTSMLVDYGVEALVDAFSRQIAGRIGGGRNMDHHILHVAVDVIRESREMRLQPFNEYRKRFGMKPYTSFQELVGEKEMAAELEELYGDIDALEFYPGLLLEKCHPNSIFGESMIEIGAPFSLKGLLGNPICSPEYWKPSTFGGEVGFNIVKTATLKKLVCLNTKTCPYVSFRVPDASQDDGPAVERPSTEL

Structure (SMILES)	fold change (FC) [2]	fold change (FC) [3]	IC50 [5] [nM]	other results
Nc1ccc(-c2c(-c3ccccc3)c3n(c2/C=C/C(=O)O)CCC3)cc1	–	–	–	IP [1]: 31%
CSc1ccc(C(=O)c2ccc3n2CCCC3C(=O)O)cc1 (stereo not drawn)	-1	3	–	–
O=C(O)/C=C/c1c(-c2ccc([S+]([O-])Cc3ccccc3)cc2)c(-c2ccccc2)c2n1CCC2 (stereo not drawn)	–	–	–	IP [1]: 18%
N#Cc1c(NC(=O)CN2CCOCC2)c(C(=O)Nc2ccccc2Cl)n2c1CCC2	–	–	–	inhibition (INH) [4]: 7.1%
O=C(O)/C=C/c1c(-c2ccccc2)c(-c2ccccc2)c2n1CCC2	–	–	–	IP [1]: 17%
CC1(C)Cc2c(-c3ccccc3)c(-c3ccco3)c(CC(=O)O)n2C1	–	–	130	–
CC1(C)Cc2c(-c3ccccc3)c(-c3ccsc3)c(CC(=O)O)n2C1	–	–	60	–
CS(=O)(=O)c1ccc(C(=O)c2ccc3n2CCCC3C(=O)O)cc1 (stereo not drawn)	3	<1	–	–
Cc1c(-c2ccc(Cl)cc2)c(-c2ccccc2)c2n1CC(C)(C)C2=O	–	–	950	–
CC(C)(C)C(=O)c1ccc2n1CCC2C(=O)O (stereo not drawn)	1	-10	–	–
C[S+]([O-])c1ccc(C(=O)c2ccc3n2CCCC3C(=O)O)cc1 (stereo not drawn)	<0.2	-0.5	–	–
Clc1ccc(-c2cn3c(c2-c2ccccc2)CCC3)s1	–	–	3900	IP [6]: 0%
O=C(c1ccc(F)cc1)c1ccc2n1CCCCC2C(=O)O (stereo not drawn)	<1	<1.3	–	–
O=C(O)/C=C/c1c(-c2ccc([S+]([O-])c3ccccc3)cc2)c(-c2ccccc2)c2n1CCC2 (stereo not drawn)	–	–	–	IP [1]: 12%
Cc1ccc(-c2c(-c3ccc(S(C)(=O)=O)cc3)cn3c2CCC3)cc1	–	–	700	IC50 [7]: 5 nM
CSc1ccc(-c2cn3c(c2-c2ccccc2)CCC3)cc1	–	–	1100	IP [6]: 0%; IC50 [7]: 1000 nM
CS(=O)(=O)c1ccc(-c2cn3c(c2-c2ccc(F)cc2)CCC3)cc1	–	–	4300	IP [6]: 0%; IC50 [7]: 160 nM
CSc1ccc(-c2cn3c(c2-c2ccc(C)cc2)CCC3)cc1	–	–	30	IP [6]: 0%; IC50 [7]: 900 nM
O=C(O)/C=C/c1c(-c2ccc(Nc3ccccc3)cc2)c(-c2ccccc2)c2n1CCC2	–	–	–	IP [1]: 45%
O=C(O)/C=C/c1c(-c2ccc(S(=O)(=O)Cc3ccccc3)cc2)c(-c2ccccc2)c2n1CCC2	–	–	–	IP [1]: 0%
N#Cc1c(NC(=O)CCN2CCOCC2)c(C(=O)Nc2ccccc2Cl)n2c1CCC2	–	–	–	inhibition (INH) [4]: 5.7%
O=C(c1ccc2n1CCC2C(=O)O)C1CCC1 (stereo not drawn)	-1.5	30	–	–
O=C(c1cccc(Cl)c1)c1ccc2n1CCCC2C(=O)O (stereo not drawn)	8	-9	–	–
O=C(c1ccc(F)cc1)c1ccc2n1CCCC2C(=O)O (stereo not drawn)	<1	<10	–	–
O=C(c1ccc(F)cc1)c1ccc2n1CCC2C(=O)O (stereo not drawn)	61	183	–	–
CC1(C)Cn2c(CC(=O)O)c(-c3ccc(Cl)cc3)c(-c3ccccc3)c2C1=O	–	–	–	IC50 [7]: 2100 nM
Cc1ccc(C(=O)c2ccc3n2CCCC3C(=O)O)cc1 (stereo not drawn)	<1	<0.5	–	–
N#Cc1c(NC(=O)CCl)c(C(=O)Nc2ccccc2Cl)n2c1CCC2	–	–	–	inhibition (INH) [4]: 22.2%
O=C(O)/C=C/c1c(-c2ccc(SCc3ccccc3)cc2)c(-c2ccccc2)c2n1CCC2	–	–	5500	–
O=C(O)/C=C/c1c(-c2ccc(Nc3cccc(C(F)(F)F)c3)cc2)c(-c2ccccc2)c2n1CCC2	–	–	–	IP [1]: 45%
